Results from paper PMC9138505, “Small Molecule 20S Proteasome Enhancer Regulates MYC Protein Stability and Exhibits Antitumor Activity in Multiple Myeloma” (Biomedicines, 2022).
Values joined by “and” are separate entries in the source; they are usually repeats but may differ in a detail not shown here. Identical values can stand only once.

Test system: RPMI-8226 cells
Assay: Gene expression profiling, NanoString nCounter PanCancer Pathways Panel, ROSALIND analysis
Type: cell-based, human
Conditions: RPMI-8226, TCH-165 samples 1-3
Procedure: RPMI-8226 cells were treated with vehicle or TCH-165 (10 μM) for 4 h. Total RNA was obtained using the mirVana miRNA Isolation Kit, with phenol (Thermofisher Scientific; AM1560; Waltham, MA, USA). Total RNA was quantified by Qubit (Thermofisher Scientific; Q32855; Waltham, MA, USA). and gene expression was evaluated against the nCounter® PanCancer Pathways Panel^TM according to the standard NanoString protocol.
Data were analyzed by ROSALIND® [36] with a hyperscale architecture developed by ROSALIND, Inc. (San Diego, CA, USA). Normalization, fold changes and p-values were calculated using criteria provided by NanoString. ROSALIND follows the nCounter® Advanced Analysis protocol of dividing counts within a lane by the geometric mean of the normalizer probes from the same lane. Housekeeping probes to be used for normalization are selected based on the geNorm algorithm, as implemented in the NormqPCR R library. Fold changes and p-values are calculated using the fast method as described in the nCounter Advanced Analysis 2.0 User Manual. The p-value adjustment is performed using the Benjamini–Hochberg method of estimating false discovery rates (FDR). Clustering of genes for the final heatmap of differentially expressed genes was done using the PAM (Partitioning Around Medoids) method using the fpc R library. Hypergeometric distribution was used to analyze the enrichment of pathways, gene ontology, domain structure and other ontologies. The topGO R library was used to determine local similarities and dependencies between GO terms in order to perform Elim pruning correction. Several database sources were referenced for enrichment analysis, including Interpro [40], NCBI [41], MSigDB [42, 43], REACTOME [44], WikiPathways. Enrichment was calculated relative to a set of background genes relevant to the experiment.

With `CCOC(=O)[C@]1(c2ccccc2)N=C(c2ccc(OC)cc2)N(Cc2ccccc2)[C@@H]1c1ccc(NCc2ccccc2)cc1` [TCH-165] the “CDKN2A normalized gene expression” value was 7.059 and 6.817 and 7.045, the “CDKN2B normalized gene expression” value was 5.827 and 5.402 and 5.787 and the “CDKN2C normalized gene expression” value was 2.401 and 2.3768 and 2.653. For the same compound, the “CDKN2D normalized gene expression” value was 6.667 and 6.808 and 7.091, the “CEBPA normalized gene expression” value was 4.308 and 4.029 and 4.291 and the “CEBPE normalized gene expression” value was 3.723 and 3.739 and 3.291. For the same compound, the “CHAD normalized gene expression” value was 4.986 and 5.093 and 4.805, the “CHEK1 normalized gene expression” value was 9.816 and 9.813 (2×) and the “CHEK2 normalized gene expression” value was 8.6438 and 8.491 and 8.618. The “CHUK normalized gene expression” value was 8.745 and 8.67 and 8.685, the “CIC normalized gene expression” value was 6.793 and 6.427 and 6.731 and the “CLCF1 normalized gene expression” value was 3.723 and 4.2133 and 3.184. For the same compound, the “CNTFR normalized gene expression” value was 4.723 and 5.093 and 4.653, the “COL1A1 normalized gene expression” value was 4.649 and 4.524 and 3.943 and the “COL1A2 normalized gene expression” value was 3.401 and 3.154 and 4.0068. The “COL2A1 normalized gene expression” value was 6.015 and 6.817 and 6.494, the “COL3A1 normalized gene expression” value was 4.86 and 4.093 and 4.731 and the “COL4A3 normalized gene expression” value was 6.182 and 5.798 and 6.156. The “COL4A4 normalized gene expression” value was 3.208 and 3.739 and 4.613, the “COL4A5 normalized gene expression” value was 4.571 and 3.962 and 3.876 and the “COL4A6 normalized gene expression” value was 3.208 and 3.476 and 3.0682. The “COL5A1 normalized gene expression” value was 6.156 and 5.3768 and 5.823, the “COL5A2 normalized gene expression” value was 4.649 and 4.524 and 4.184 and the “COL11A1 normalized gene expression” value was 4.793 and 4.029 and 4.184. The “COL11A2 normalized gene expression” value was 3.571 and 3.029 and 2.483, the “COMP normalized gene expression” value was 3.571 and 4.093 and 4.0682 and the “CREB5 normalized gene expression” value was 6.467 and 6.324 and 6.437. The “CREBBP normalized gene expression” value was 5.488 and 4.855 and 5.156, the “CSF1R normalized gene expression” value was 3.401 and 3.739 and 3.653 and the “CSF2 normalized gene expression” value was 3.86 and 4.029 and 3.291. For the same compound, the “CSF3R normalized gene expression” value was 4.571 and 3.962 and 4.39, the “CSF3 normalized gene expression” value was 4.208 and 3.739 and 3.805 and the “CTNNB1 normalized gene expression” value was 11.1942 and 11.0314 and 10.9756. The “CUL1 normalized gene expression” value was 11.4237 and 11.3932 and 11.3628, the “CXCL8 normalized gene expression” value was 7.908 and 8.053 and 8.0531 and the “CYLD normalized gene expression” value was 9.829 and 9.692 and 9.711. The “DAXX normalized gene expression” value was 9.74 and 9.747 and 9.706, the “DDB2 normalized gene expression” value was 8.97 and 9.039 and 9.005 and the “DDIT3 normalized gene expression” value was 11.9124 and 11.8557 and 11.855. For the same compound, the “DDIT4 normalized gene expression” value was 9.959 and 9.961 and 9.982, the “DKK1 normalized gene expression” value was 5.259 and 4.699 and 4.769 and the “DKK2 normalized gene expression” value was 5.488 and 4.657 and 4.805. The “DKK4 normalized gene expression” value was 4.986 and 4.855 and 4.975, the “DLL1 normalized gene expression” value was 4.308 and 4.029 and 3.5707 and the “DLL3 normalized gene expression” value was 5.101 and 4.427 and 4.5707. The “DLL4 normalized gene expression” value was 5.401 and 4.817 and 5.211, the “DNMT1 normalized gene expression” value was 10.7929 and 10.7224 and 10.7359 and the “DNMT3A normalized gene expression” value was 7.355 and 7.311 and 7.414. The “DTX1 normalized gene expression” value was 5.156 and 5.402 and 5.592, the “DTX4 normalized gene expression” value was 5.793 and 5.996 and 5.9095 and the “DUSP2 normalized gene expression” value was 6.378 and 6.364 and 6.623. The “DUSP4 normalized gene expression” value was 7.667 and 7.581 and 7.494, the “DUSP5 normalized gene expression” value was 10.8611 and 10.8321 and 10.8236 and the “DUSP6 normalized gene expression” value was 8.008 and 8.128 and 8.003. For the same compound, the “DUSP8 normalized gene expression” value was 6.876 and 6.44 and 6.56, the “DUSP10 normalized gene expression” value was 7.221 and 7.177 and 7.1906 and the “E2F1 normalized gene expression” value was 9.135 and 9.126 and 9.063. For the same compound, the “E2F5 normalized gene expression” value was 9.349 and 9.291 and 9.221, the “EFNA1 normalized gene expression” value was 6.283 and 5.2133 and 5.39 and the “EFNA2 normalized gene expression” value was 4.924 and 5.2133 and 5.0068. The “EFNA3 normalized gene expression” value was 8.052 and 8.008 and 8.0531, the “EFNA5 normalized gene expression” value was 5.649 and 4.739 and 4.943 and the “EGF normalized gene expression” value was 4.86 and 4.569 and 5.0682. For the same compound, the “EGFR normalized gene expression” value was 5.892 and 5.524 and 5.461, the “EIF4EBP1 normalized gene expression” value was 10.6929 and 10.6602 and 10.7353 and the “ENDOG normalized gene expression” value was 9.908 and 9.9873 and 9.891. The “EP300 normalized gene expression” value was 9.491 and 9.463 and 9.424, the “EPHA2 normalized gene expression” value was 3.208 and 2.891 and 1.805 and the “EPO normalized gene expression” value was 5.101 and 4.324 and 4.483. For the same compound, the “EPOR normalized gene expression” value was 7.259 and 7.147 and 7.1271, the “ERBB2 normalized gene expression” value was 6.044 and 5.427 and 5.291 and the “ERCC2 normalized gene expression” value was 6.924 and 6.657 and 6.5707. For the same compound, the “ERCC6 normalized gene expression” value was 6.509 and 6.581 and 6.5707, the “ETS2 normalized gene expression” value was 9.802 and 9.726 and 9.794 and the “ETV1 normalized gene expression” value was 9.48 and 9.485 and 9.458. The “ETV4 normalized gene expression” value was 7.978 and 7.949 and 7.741, the “ETV7 normalized gene expression” value was 4.723 and 4.962 and 4.528 and the “EYA1 normalized gene expression” value was 7.74 and 7.85 and 7.863. The “EZH2 normalized gene expression” value was 10.3563 and 10.2507 and 10.2954, the “FANCA normalized gene expression” value was 7.073 and 6.808 and 7.015 and the “FANCB normalized gene expression” value was 7.62 and 7.291 and 7.576. The “FANCC normalized gene expression” value was 7.86 and 7.614 and 7.764, the “FANCE normalized gene expression” value was 7.61 and 7.608 and 7.587 and the “FANCF normalized gene expression” value was 8.337 and 8.334 and 8.268. The “FANCG normalized gene expression” value was 7.571 and 7.364 and 7.478, the “FANCL normalized gene expression” value was 8.9359 and 8.968 and 8.918 and the “FAS normalized gene expression” value was 6.723 and 6.719 and 6.613. For the same compound, the “FASLG normalized gene expression” value was 5.044 and 4.614 and 4.769, the “FEN1 normalized gene expression” value was 11.0932 and 10.9634 and 10.9666 and the “FGF1 normalized gene expression” value was 4.723 and 4.524 and 5.098.
